Residues, ends and D or L forms follow the SMILES beside them. *: point of attachment. Cbz = O=C(OCc1ccccc1)*; CH2F = FC*
Assays:
Jurkat cells [1] = experiment: Immunoblotting of caspase substrate proteolysis during apoptosis; type: cell-based, human
Method: Jurkat cells at a density of 1×10^6 cells/ml were treated with etoposide (50 μM) for 0, 2, 4, 8, 12, and 24 hours prior to harvesting. Harvested cells were pelleted at 2,000×g and 25° C. for 5 minutes, washed twice with phosphate buffered saline, and lysed at a concentration of 2×10^7 cells/ml in 1.0% SDS, phosphate buffered saline, 100 μM Z-VAD-FMK, 100 μM E-64, 1 mM PMSF, 1 mM AEBSF, 5 mM EDTA, and 10 mM sodium butyrate. Whole cell lysates were sonicated to shear genomic DNA, normalized to a protein concentration of approximately 2 mg/ml, as determined by BCA assay (Pierce). Cell lysates for each apoptotic timepoint were then analyzed by SDS-PAGE and Western blot. Mouse monoclonal anti-caspase-3 (#9668) and rabbit polyclonal anti-HDAC3 (#2632) antibodies were purchased from Cell Signaling Technology. Mouse monoclonal anti-DFF45 (#611036) antibody was purchased from BD Transduction Laboratories. Goat polyclonal anti-N-Cor (#sc-1611) and rabbit polyclonal anti-HDAC7 (#sc-11412) antibodies were purchased from Santa Cruz Biotechnology. Rabbit polyclonal anti-TBLR1 (#A300-408A), rabbit polyclonal anti-SHARP (#A301-119A), and rabbit polyclonal anti-RBBP7 (#A300-959A) antibodies were purchased from Bethyl Laboratories. Rabbit polyclonal anti-SMRTe (#06-891) antibody was purchased from Millipore. Western blots were imaged using SuperSignal West Femto Substrate (Pierce) with a Fluor Chem SP imager (Alpha Innotech). DNA fragmentation of whole cell DNA was analyzed by agarose gel with the Apoptotic DNA Ladder Kit (Roche).

Jurkat cells [2] = experiment: Subtiligase N-terminal labeling and LC/MS/MS degradomic analysis of apoptotic Jurkat cells; type: cell-based, human; conditions: Jurkat cells treated with etoposide (50 μM, 12 hours)
Method: Normal cells were harvested for experiments at a density of 1×10^6 cells/ml. For apoptotic samples, cells at a density of 1×10^6 cells/ml were treated with etoposide (50 μM) for 12 hours prior to harvesting. Harvested cells (0.1 to 1 billion) were pelleted at 2,000×g and 25° C. for 5 minutes, washed twice with phosphate buffered saline, and lysed at a typical concentration of 2×10^8 cells/ml in 1.0% TRITON X-100 detergent, 100 mM BICINE pH 8.0, 100 μM Z-VAD-FMK, 100 μM E-64, 1 mM PMSF, 1 mM AEBSF, and 5 mM EDTA. […] Clarified supernatant was immediately used in ligation reactions at a protein concentration of approximately 20 mg/ml, as determined by Bradford assay (Bio-Rad).
Subtiligase (1 μM), biotinylated peptide ester (1 mM), and DTT (2 mM) were added to either control or apoptotic cell lysate. Ligation reactions were typically left to proceed at room temperature for 60 minutes. Samples were then denatured by direct addition of solid guanidine hydrochloride to a final concentration of 6 M, reduced by addition of neutralized TCEP (2 mM), heated at 95° C. for 15 minutes, cooled to room temperature, and alkylated by addition of iodoacetamide (6 mM) and incubation at room temperature in the dark for 1 hour. […]

[3] = Jurkat cells, 50 μM etoposide, FIG. 5A

Compound | Cleavage of representative substrates HDAC7, Ku80, RCOR2, TBLR1, and UBP36 in presence of caspase inhibitor (Jurkat cells [1]; etoposide-treated Jurkat cells, FIG. 5B) | Proteolysis of CCTδ, Ku80, LCOR, and RBBP7 (time course, immunoblot) (Jurkat cells [1]; [3]) | Proteolysis of HDAC6, HDAC7, N-CoR, RCOR2, SHARP, TBLR1, UBP5, and UBP36 (time course, immunoblot) (Jurkat cells [1]; [3]) | N-termini identified in apoptotic cells derived from P1 aspartate cleavages (Jurkat cells [2]; large-scale (2D LC/MS/MS) experiments) [%] | N-termini identified in apoptotic cells derived from P1 aspartate cleavages (Jurkat cells [2]; small-scale (1D LC/MS/MS) experiments) [%]
COC(=O)C[C@H](NC(=O)[C@H](C)NC(=O)[C@@H](NC(=O)OCc1ccccc1)C(C)C)C(=O)CF [Z-VAD(OMe)-fmk] (Cbz-Val-Ala-Asp(OMe)-CH2F) | blocked | – | – | – | –
COc1cc([C@@H]2c3cc4c(cc3[C@@H](O[C@@H]3O[C@@H]5CO[C@@H](C)O[C@H]5[C@H](O)[C@H]3O)[C@H]3COC(=O)[C@H]23)OCO4)cc(OC)c1O [etoposide] | – | partial cleavage | full cleavage | 43 | 43

Reference: patent publication US9493522B2, “Discovery of candidate biomarkers of in vivo apoptosis by global profiling of caspase cleavage sites” (THE REGENTS OF THE UNIVERSITY OF CALIFORNIA, priority 2008, dated 2016)
